T/C data for twelve compounds are collected here from PubChem BioAssay AID232 (DTP/NCI, 2004).

The subject of the experiment is Gardner 6C3HED lymphosarcoma ip, C3AKF1 mice, survival T/C. As to the kind of experiment: NCI In Vivo Anticancer Drug Screen. Data for tumor model Lymphosarcoma Gardner 6C3HED (intraperitoneal) in C3AKF1 (CHKRF1) mice. The conditions noted are these: endpoint: survival time, mean or median, schedule: Q01DX010 (ip), higher = longer survival. On the procedure: The antitumor activity of compounds was measured in mice bearing transplantable tumors. Survival or tumor size were measured and the results are expressed as the measurement made in the treated group (T) divided by the measurement made in the vehicle treated control group (C). The tumor model used in this assay is Lymphosarcoma Gardner 6C3HED (intraperitoneal) in C3AKF1 (CHKRF1) mice

Where [1] appears, read: dose: 2.0 mg/kg/injection, vehicle: saline.
[2] abbreviates: dose: 4.0 mg/kg/injection, vehicle: saline.
The mark [3] stands for this setting: dose: 8.0 mg/kg/injection, vehicle: saline.
Setting [4] is: dose: 16.0 mg/kg/injection, vehicle: saline.
[5] abbreviates: dose: 40.0 mg/kg/injection, vehicle: saline.
The mark [6] stands for this setting: dose: 1.0 mg/kg/injection, vehicle: saline.

“And” between values parts separate entries of the source, which are not always exact repeats. Equal entries are not always repeated. Inconclusive results and toxic doses are left out.

On to `CC(CCC(C)OS(C)(=O)=O)OS(C)(=O)=O` (stereo unspecified), for which the T/C by setting is: under setting [1], 100 % of control; under setting [2], 104 % of control; under setting [3], 104 % of control; under setting [4], 116 % of control.
On to `NC(Cc1ccc(N(CCCl)CCCl)cc1)C(=O)O` (stereo unspecified), for which the T/C is 160 % of control under setting [3]; 103 % of control (dose: 10.0 mg/kg/injection, vehicle: saline); 100 % of control and 105 % of control under setting [4].
Take `OCC1OC(n2cnc3c(Cl)ncnc32)C(O)C1O` (stereo unspecified): the T/C was 95 % of control (dose: 62.5 mg/kg/injection, vehicle: saline); 90 % of control (dose: 125.0 mg/kg/injection, vehicle: saline); 90 % of control (dose: 250.0 mg/kg/injection, vehicle: saline); 90 % of control and 100 % of control (dose: 500.0 mg/kg/injection, vehicle: saline).
On to `CN(N=O)C(=O)NC(C=O)C(O)C(O)C(O)CO` (stereo unspecified), for which the T/C under setting [5] was 300 % of control; the T/C (dose: 60.0 mg/kg/injection, vehicle: saline) was 300 % of control; the T/C (dose: 135.0 mg/kg/injection, vehicle: saline) is 95 % of control and 100 % of control.
On to `C[n+]1c2ccccc2nc2c(N)cc(N)cc21`, for which the T/C (dose: 12.0 mg/kg/injection, vehicle: saline) was 113 % of control; the T/C (dose: 18.0 mg/kg/injection, vehicle: saline) was 122 % of control; the T/C under setting [5] was 113 % of control.
`O=C(Nc1ccc(C2=NCCN2)cc1)c1cccc(C(=O)Nc2ccc(C3=NCCN3)cc2)c1`: the T/C is 183 % of control and 200 % of control under setting [3]; 272 % of control and 300 % of control under setting [4]; 279 % of control and 300 % of control (dose: 32.0 mg/kg/injection, vehicle: saline); 279 % of control and 290 % of control (dose: 64.0 mg/kg/injection, vehicle: saline).
As for `C1CN1c1nc(N2CC2)nc(N2CC2)n1`, the T/C is, setting by setting: (dose: 0.13 mg/kg/injection, vehicle: saline) 100 % of control and 105 % of control; (dose: 0.25 mg/kg/injection, vehicle: saline) 110 % of control and 115 % of control; (dose: 0.5 mg/kg/injection, vehicle: saline) 120 % of control; under setting [6], 95 % of control; (dose: 1.5 mg/kg/injection, vehicle: saline) 110 % of control.
Regarding `O=C(Nc1ccc(C2=NCCN2)cc1)c1ccc(C(=O)Nc2ccc(C3=NCCN3)cc2)c(Cl)c1`, the T/C by setting is: (dose: 2.0 mg/kg/injection, vehicle: other) 116 % of control; (dose: 4.0 mg/kg/injection, vehicle: other) 150 % of control and 159 % of control; (dose: 8.0 mg/kg/injection, vehicle: other) 225 % of control and 245 % of control; (dose: 16.0 mg/kg/injection, vehicle: other) 216 % of control and 268 % of control; (dose: 32.0 mg/kg/injection, vehicle: other) 191 % of control and 200 % of control.
On to `CS(=O)(=O)OCCCCOS(C)(=O)=O`, for which the T/C was 100 % of control (dose: 1.56 mg/kg/injection, vehicle: saline); 100 % of control and 104 % of control (dose: 3.13 mg/kg/injection, vehicle: saline).
`O=NN(CCCl)C(=O)NCCCl`: the T/C is 300 % of control (dose: 6.25 mg/kg/injection, vehicle: saline) and 257 % of control (dose: 16.25 mg/kg/injection, vehicle: saline).
Regarding `O=C1C(NC(=O)C2CCCCC2)=C(N2CC2)C(=O)C(NC(=O)C2CCCCC2)=C1N1CC1`, the T/C by setting is: (dose: 25.0 mg/kg/injection, vehicle: saline) 92 % of control; (dose: 50.0 mg/kg/injection, vehicle: saline) 92 % of control.
As for `S=P(N1CC1)(N1CC1)N1CC1`, the T/C runs as follows: under setting [6], 115 % of control and 120 % of control; under setting [1], 120 % of control; under setting [2], 160 % of control; under setting [3], 90 % of control and 110 % of control.
